The values below come from patent US20120039822A1, “DESENSITIZING DENTIFRICE” (priority 2009, published 2012).

SMILES strings stand for the structures.

The data set is described as follows: Solubility of triclosan in aqueous solutions, filtration methodology (filtrate analyzed for triclosan). In kind it is physicochemical. How it is done: In the first set of experiments, the solubility of triclosan in the presence/ absence of KCl was measured using a filtration methodology in which the filtrate was analyzed for triclosan.
In the following experiments, triclosan solubility was measured with increasing concentrations of hydroxypropyl-beta-cyclodextrin (no SLS, no KCl).
In the next experiments, triclosan solubility was measured in the presence of hydroxypropyl-beta-cyclodextrin along with SLS and KCl.

As for `Oc1cc(Cl)ccc1Oc1ccc(Cl)cc1Cl` [Triclosan, 2,4,4′-trichloro-2′-hydroxy-diphenyl ether], the Appearance entry is “Suspension and no precipitate” (0% SLS - 0% (control)); “Suspension and no precipitate” (1.5% SLS - 0% KCl); “Turbid and thick precipitate” (1.5% SLS - 3.75% KCl). For the same compound, the “Triclosan solubility, %” value is, setting by setting: (Table 3, 0% SLS - 0% (control)) 0.012%; (Table 3, 1.5% SLS - 0% KCl) 0.330%; (Table 3, 1.5% SLS - 0% KCl, listed as triclosan) “increased the solubility”; (Table 3, 1.5% SLS - 3.75% KCl) 0.110%; (Table 3, 1.5% SLS - 3.75% KCl, listed as triclosan) “decreased solubility”; (Table 4, 0% HPβCD in water (no SLS, no KCl)) 0.012%. In addition, the “Triclosan solubility, %” value is, setting by setting: (Table 4, 10% HPβCD in water (no SLS, no KCl)) 0.510%; (Table 4, 15% HPβCD in water (no SLS, no KCl)) 0.680%; (Table 4, 20% HPβCD in water (no SLS, no KCl)) 0.710%; (Table 5, 0% SLS) 0.012%; (Table 5, 1.5% SLS - 3.75% KCl) 0.011%; (Table 5, 1.5% SLS - 3.75 KCl - 10% HPbCD) 0.190%. Also, the “Triclosan solubility, %” value (Table 5, 1.5% SLS - 3.75 KCl - 20% HPbCD) was 0.380%. Besides, the “triclosan solubility with increasing concentrations of hydroxypropyl-beta-cyclodextrin” value (no SLS, no KCl) is recorded as “increased in a dose-dependent manner”. Further, the “triclosan solubility in the presence of hydroxypropyl-beta-cyclodextrin along with SLS and KCl” value (with SLS and KCl) is “increased solubility”.
